Key:
[1] = test system: tumour cell proliferation; test: Inhibition of tumour cell proliferation in vitro; assay type: cell-based
[2] = Half life on administration to man; settings: in vivo
[3] = Phase I trial EudraCT3941 (Example 1): safety and toxicity; assay type: in vivo, human
Excerpt: (§1) Methods: A 3+3 dose escalation design was used and two IV schedules were explored. Schedule A, weekly dosing (QW) and schedule B, once every 2 weeks dosing (Q2W). A cycle consisted of 4 weeks and treatment was stopped after 6 cycles in both schedules. An expansion cohort to evaluate clinical activity in patients with FR-α overexpressing high grade serous ovarian cancer (HGSOC) was initiated.

[4] = Phase I trial EudraCT3941 (Example 1): pharmacokinetics; assay type: in vivo, human
Excerpt: as §1

[5] = test system: high grade serous ovarian cancer (HGSOC); test: Phase I trial EudraCT3941 (Example 1): tumour response (RECIST partial responses); assay type: in vivo, human
Excerpt: as §1

[6] = target: T1, thymidylate synthase (Homo sapiens, UniProt P04818); test: FLT PET imaging of thymidylate synthase inhibition in trial patients; settings: in vivo
T1 construct: from tissue; host or cells: tumour tissue of trial patients, in vivo
Excerpt: 3827-3834. 2008 (Pillai et al).

[7] = target: thymidylate synthase (TS); settings: read-out: Ki against isolated target thymidine synthase; cited from earlier work
[8] = target: alpha-folate receptor (FR-α) (Homo sapiens, UniProt P15328); settings: relative to folic acid; Theti et al., 2003; cited from earlier work
[9] = test system: reduced folate carrier (RFC); settings: except at high concentrations; Gibbs et al., 2005; cited from earlier work
[10] = target: T2, folylpolyglutamate synthase (FPGS) (Homo sapiens, UniProt Q05932); settings: cited from earlier work
T2 sequence (Q05932 43-587): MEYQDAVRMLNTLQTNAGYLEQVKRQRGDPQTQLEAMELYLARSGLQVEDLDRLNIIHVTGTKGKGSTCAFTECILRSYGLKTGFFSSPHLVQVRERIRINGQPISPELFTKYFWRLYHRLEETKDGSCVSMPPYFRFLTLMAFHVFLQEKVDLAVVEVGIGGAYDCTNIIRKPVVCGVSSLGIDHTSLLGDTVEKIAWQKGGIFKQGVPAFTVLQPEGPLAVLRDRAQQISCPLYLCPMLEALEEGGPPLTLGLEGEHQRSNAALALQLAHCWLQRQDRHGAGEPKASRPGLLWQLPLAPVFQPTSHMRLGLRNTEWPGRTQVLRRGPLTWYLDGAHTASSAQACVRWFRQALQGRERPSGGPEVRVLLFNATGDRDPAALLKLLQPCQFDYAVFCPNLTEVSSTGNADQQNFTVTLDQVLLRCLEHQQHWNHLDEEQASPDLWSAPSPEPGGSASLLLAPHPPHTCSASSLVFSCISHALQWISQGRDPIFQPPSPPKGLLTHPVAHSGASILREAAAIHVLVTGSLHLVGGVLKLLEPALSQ

[11] = in vivo; cited from earlier work
[12] = in vivo; cited from earlier work; remark: listed apart in the source
[13] = test system: platinum-sensitive epithelial ovarian cancer; settings: 1,100 patient Phase III, with paclitaxel and carboplatin; cited from earlier work
[14] = test system: platinum resistant epithelial ovarian cancer; settings: 6 mg/kg every three weeks, cited from earlier work
[15] = expansion cohort, archival samples analysed

T1 sequence (P04818 2-313 limits assumed): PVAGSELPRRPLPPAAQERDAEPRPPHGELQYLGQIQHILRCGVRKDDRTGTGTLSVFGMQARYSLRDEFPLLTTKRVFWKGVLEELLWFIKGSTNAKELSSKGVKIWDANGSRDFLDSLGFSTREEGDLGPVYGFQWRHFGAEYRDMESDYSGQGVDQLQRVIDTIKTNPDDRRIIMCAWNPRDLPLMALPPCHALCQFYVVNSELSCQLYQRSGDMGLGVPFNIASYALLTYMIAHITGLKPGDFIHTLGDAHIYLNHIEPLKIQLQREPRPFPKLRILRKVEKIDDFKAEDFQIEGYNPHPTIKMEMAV
alpha-folate receptor (FR-α), sequence (P15328 25-234, species assumed): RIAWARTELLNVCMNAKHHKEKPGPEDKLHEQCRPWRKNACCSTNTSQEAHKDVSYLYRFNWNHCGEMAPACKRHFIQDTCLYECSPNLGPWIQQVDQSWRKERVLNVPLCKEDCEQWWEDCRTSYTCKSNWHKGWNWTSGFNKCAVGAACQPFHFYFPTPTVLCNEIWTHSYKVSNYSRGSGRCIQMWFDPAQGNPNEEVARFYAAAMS

Compound: C#CCN(c1ccc(C(=O)N[C@@H](CCC(=O)N[C@H](CCC(=O)O)C(=O)O)C(=O)O)cc1)[C@H]1CCc2cc3nc(CO)[nH]c(=O)c3cc21 [BTG945, N—{N-{4-[N-((6S)-2-Hydroxymethyl-4-oxo-3,4,7,8-tetrahydro-6H-cyclo-penta[g]quinazolin-6-yl)-N-(prop-2-ynyl)amino]benzoyl}-L-γ-glutamyl}-D-glutamic acid]
- inhibition of tumour cell proliferation in vitro [1]: concentration and time-dependent inhibition
- half life levels on administration to man [2]: unusually long
- grade 3-4 diarrhea, mucositis or neutropenia ([3]; human, in vivo, 24 weeks): No grade 3-4 diarrhea, mucositis or neutropenia
- incidence of dysgeusia ([3]; human, in vivo, 24 weeks): 12%
- incidence of fatigue ([3]; human, in vivo, 24 weeks): 36%
- incidence of nausea ([3]; human, in vivo, 24 weeks): 21%
- cases of suspected drug-related drop in Dlco ([3]; in vivo): No cases
- conventional toxicities of cytotoxic chemotherapy (myelotoxicity, nephrotoxicity, neurotoxicity) ([3]; in vivo): not observed
- dose limiting effects other than BOOP ([3]; in vivo): not seen
- occurrence of treatment limiting BOOP ([3]; in vivo): without occurrence
- side effects associated with α-folate receptor antibody conjugates (diarrhoea, blurred vision, nausea) ([3]; in vivo): not observed
- side effects normally associated with thymidine synthase inhibitors (neutropenia, diarrhoea, hair loss) ([3]; in vivo): not observed
- dose limiting toxicity ([3]; schedule A, weekly IV dosing (QW), 1-6 mg/m^2): G3 cellulitis
- dose limiting toxicity ([3]; schedule B, IV once every 2 weeks (Q2W), 2-12 mg/m^2): no dose limiting toxicity
- period for which concentrations above 0.5 μM were achieved ([4]; doses above 6 mg/m^2): 72 h
- period for which concentrations between 0.05-1 μM were achieved ([4]; doses of 4 mg/m^2 and above): 48 h
- AUC ([4]; human, in vivo, iv, 12 mg/m2): 85200 ng·h/mL
- Cmax ([4]; human, in vivo, iv, 12 mg/m2): 4950 ng/mL
- half-life ([4]; human, in vivo, iv, 12 mg/m2): 26 h
- patients with HGSOC with partial responses (PRs) ([5]; dose escalation cohort): 5 patients
- patients with PRs ([5]; expansion cohort, HGSOC, 12 mg/m^2 Q2W): 5/11
- AFR+ve patients with PR [5, 15]: 4/4
- AFR−ve patients who did not have a PR [5, 15]: 4/4
- thymidylate synthase inhibition by FLT PET imaging [6]: Evidence of thymidylate synthase inhibition
- Ki [7]: 1.2 nM
- affinity for α-FR as % of folic acid (FA) [8]: 70%
- affinity for reduced folate carrier (RFC) [9]: negligible affinity
- substrate for FPGS [10]: not a substrate
- dose at which toxicity occurred (incidence of BOOP) [11]: 45 mg/m^2

Compound: C#CCN(Cc1cc2c(=O)[nH]c(C)nc2cc1C)c1ccc(C(=O)N[C@@H](CCc2nnn[nH]2)C(=O)O)c(F)c1 [Plevitrexed, plevitrexed]
- substrate for FPGS [10]: not a substrate
- half-life in plasma [12]: long

Compound: Cc1nc2ccc(CN(C)c3ccc(C(=O)N[C@@H](CCC(=O)O)C(=O)O)s3)cc2c(=O)[nH]1 [Raltitrexed, raltitrexed]
- substrate for FPGS [10]: excellent substrates
- half-life in plasma [12]: fairly short

Compound: Nc1nc2[nH]cc(CCc3ccc(C(=O)N[C@@H](CCC(=O)O)C(=O)O)cc3)c2c(=O)[nH]1 [pemetrexed]
- substrate for FPGS [10]: excellent substrates
- half-life in plasma [12]: fairly short

Compound: Farletuzumab: FR-α targeted monoclonal antibody
- progression free survival (PFS) [13]: failed to improve progression free survival

Compound: IMGN853: Antibody-drug conjugate, FR-α targeted
- share of patients with three or less prior lines of therapy showing this outcome [14]: 39%
- PFS ([14]; patients with three or less prior lines of therapy): 6.7 months

From patent publication US12128045B2, “Platinum-resistant cancer treatment” (BTG International Limited, priority 2017, dated 2024)
